According to PubChem BioAssay (NCI):
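Five concentrations, 48 hours, 96-well plates. Abbreviation: GI50, concentration required for 50% inhibition of growth. TGI denotes the concentration required for complete inhibition of growth.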

Assays:
Assay in all cases: NCI anticancer screen, dose series, 48 h; in the data active = GI50 below about 0.43 µM; inactive = the rest
786-0 renal = tested on: 786-0 renal
A498 renal = tested on: A498 renal
A549 NSCLC = tested on: A549 NSCLC
ACHN renal = tested on: ACHN renal
BT-549 breast = tested on: BT-549 breast
CAKI-1 renal = tested on: CAKI-1 renal
CCRF-CEM leukemia = tested on: CCRF-CEM leukemia
COLO 205 colon = tested on: COLO 205 colon
DU-145 prostate = tested on: DU-145 prostate
EKVX NSCLC = tested on: EKVX NSCLC
HCC-2998 colon = tested on: HCC-2998 colon
HCT-116 colon = tested on: HCT-116 colon
HCT-15 colon = tested on: HCT-15 colon
HL-60(TB) leukemia = tested on: HL-60(TB) leukemia
HOP-62 NSCLC = tested on: HOP-62 NSCLC
HOP-92 NSCLC = tested on: HOP-92 NSCLC
HS 578T breast = tested on: HS 578T breast
HT29 colon = tested on: HT29 colon
IGROV1 ovarian = tested on: IGROV1 ovarian
K-562 leukemia = tested on: K-562 leukemia
KM12 colon = tested on: KM12 colon
LOX IMVI melanoma = tested on: LOX IMVI melanoma
M14 melanoma = tested on: M14 melanoma
MALME-3M melanoma = tested on: MALME-3M melanoma
MCF7 breast = tested on: MCF7 breast
MDA-MB-231 breast = tested on: MDA-MB-231 breast
MDA-MB-435 = tested on: MDA-MB-435
MDA-MB-468 breast = tested on: MDA-MB-468 breast
MOLT-4 leukemia = tested on: MOLT-4 leukemia

COc1ccc(N2N=C(c3ccc4c(c3)OCO4)CC2c2cccc(NC(=O)CCNS(=O)(=O)c3ccc(Cl)cc3)c2)cc1 (configuration not stated)
20.3 µM: TGI (BT-549 breast)
48.1 µM: TGI (A498 renal)
76.8 µM: TGI (HOP-92 NSCLC)
> 100 µM: TGI (786-0 renal) | TGI (A549 NSCLC) | TGI (ACHN renal) | TGI (CAKI-1 renal) | TGI (CCRF-CEM leukemia) | TGI (COLO 205 colon) | TGI (DU-145 prostate) | TGI (EKVX NSCLC) | TGI (HCC-2998 colon) | TGI (HCT-116 colon) | TGI (HCT-15 colon) | TGI (HL-60(TB) leukemia) | TGI (HOP-62 NSCLC) | TGI (HS 578T breast) | TGI (HT29 colon) | TGI (IGROV1 ovarian) | TGI (K-562 leukemia) | TGI (KM12 colon) | TGI (LOX IMVI melanoma) | TGI (M14 melanoma) | TGI (MALME-3M melanoma) | TGI (MCF7 breast) | TGI (MDA-MB-435) | TGI (MDA-MB-468 breast)
inactive: GI50 (786-0 renal) 18.8 µM | GI50 (A498 renal) 20.6 µM | GI50 (A549 NSCLC) 42.4 µM | GI50 (ACHN renal) 11.6 µM | GI50 (BT-549 breast) 3.03 µM | GI50 (CAKI-1 renal) 8.88 µM | GI50 (CCRF-CEM leukemia) 5.4 µM | GI50 (COLO 205 colon) 25.1 µM | GI50 (DU-145 prostate) 13.6 µM | GI50 (EKVX NSCLC) 4.36 µM | GI50 (HCC-2998 colon) 8.75 µM | GI50 (HCT-116 colon) 9.05 µM | GI50 (HCT-15 colon) 7.25 µM | GI50 (HL-60(TB) leukemia) 25.7 µM | GI50 (HOP-62 NSCLC) 63.4 µM | GI50 (HOP-92 NSCLC) 8.13 µM | GI50 (HS 578T breast) 10.6 µM | GI50 (HT29 colon) 7.96 µM | GI50 (IGROV1 ovarian) 39.8 µM | GI50 (K-562 leukemia) 3.97 µM | GI50 (KM12 colon) 12 µM | GI50 (LOX IMVI melanoma) 12.1 µM | GI50 (M14 melanoma) 9.12 µM | GI50 (MALME-3M melanoma) 5.42 µM | GI50 (MCF7 breast) 4.21 µM | GI50 (MDA-MB-231 breast) 8.11 µM | GI50 (MDA-MB-435) 14.3 µM | GI50 (MDA-MB-468 breast) 7.03 µM | GI50 (MOLT-4 leukemia) 4.71 µM
96 µM: TGI (MDA-MB-231 breast)
